Source: patent US20250241905A1, “3-BETA-HSD1 INHIBITORS AND COMPOSITIONS AND USES THEREOF” (The Cleveland Clinic Foundation, priority 2022, published 2025)
Read-outs that look alike come from different tables or passages of the source.

How the values were obtained:
human 3β-HSD1 = test: 3β-HSD1 inhibition, colorimetric NADH detection assay; format: biochemical; settings: purified recombinant human 3β-HSD1, 50 μM DHEA, 2 mM NAD+, 1 hour, room temperature, duplicate 10-point CRC; read-out: IC50 (nM), in vitro NADH inhibition
Chain of human 3β-HSD1 (P14060 2-373 limits assumed): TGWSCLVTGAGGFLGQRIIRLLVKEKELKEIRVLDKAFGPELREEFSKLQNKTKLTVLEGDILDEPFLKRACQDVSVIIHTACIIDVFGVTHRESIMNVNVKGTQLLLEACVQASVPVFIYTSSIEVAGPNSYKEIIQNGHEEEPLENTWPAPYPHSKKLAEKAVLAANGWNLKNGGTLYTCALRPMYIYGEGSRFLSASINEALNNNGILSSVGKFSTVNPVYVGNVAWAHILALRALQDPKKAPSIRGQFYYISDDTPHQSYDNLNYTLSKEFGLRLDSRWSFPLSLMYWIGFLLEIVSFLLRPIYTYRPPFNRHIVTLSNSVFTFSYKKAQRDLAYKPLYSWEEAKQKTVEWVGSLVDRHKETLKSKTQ
Source text: Enzymatic turnover was quantified through NADH generation by purified, recombinant human 3β-HSD1 (expressed in Sf9 insect cells) in the presence of steroidal substrate trans-Dehydroandrosterone (DHEA) that was placed slightly above the experimentally determined Km and saturating amounts of co-factor Nicotinamide adenine dinucleotide (NAD^+). The sequence of recombinant human 3β-HSD1 used is […] […] […] […] […] […] […] (SEQ ID NO: 3). DHEA and NAD+ were enzymatically converted to androstenedione and NADH, respectively. Final NADH concentrations were spectroscopically quantified using a commercially available Amplite™ Colorimetric NADH Assay Kit which utilizes an NADH probe with an absorbance wavelength of 460 nm. Enzymatic assays with a final volume of 25 μL were ran in a 384-well, Greiner Bio-One UV-STAR® assay plate in 50 mM TRIS pH 8.0 assay buffer. […] Compound stocks at 10 mM in DMSO were serial diluted 5-fold in DMSO to generate an ECHO® compatible source plate. 125 nL of DMSO, Trilostane, or serial diluted compounds were then acoustically transferred into an empty UV-STAR® assay plate to give a final assay concentration of 0.5% v/v DMSO. The stamp volume and dilution scheme can be adjusted to accommodate compound potency. The assay can tolerate up to a 5% v/v DMSO final assay concentration. 15 μL of 1 μg purified 3β-HSD1 and 50 μM DHEA (final assay volume concentration) was dispensed per well into the stamped plate, centrifuged for 1 minute at 1000 RPM, covered, and allowed to incubate for 15 minutes at room temp. Enzymatic reactions were initiated upon the addition of 10 μL of NAD^+ diluted in assay buffer to give a final assay volume concentration of 2 mM. The assay plate was centrifuged for 1 minute at 1000 RPM, covered, and incubated at room temperature for 1 hour. 25 μL Amplite™ Colorimetric NADH Assay Kit detection solution (prepared as recommended) was added to all reaction wells, the plate centrifuged for 1 minute at 1000 RPM, covered, and incubated for 15 minutes. Final absorbance values (λ=460 nm) are spectroscopically determined on BioTek® Cytation5 or Synergy4 plate readers. […] From the background subtracted values, the non-inhibited enzyme signal (DMSO treated) was averaged from 32 control reactions. The percent inhibition value was calculated by: % inhibition=(1−((background subtracted inhibited reaction)/(background subtracted non-inhibited average)))*100. The resulting percent inhibition was then plotted in duplicate against corresponding concentration values. The resulting CRCs were fit with a four parameter, variable slope log (inhibitor) vs response equation where Y=bottomvalue+ (topvalue−bottomvalue)/(1+10^((log IC50−X)*Hillslope)) to determine the IC50 values for tested compounds.

[1] = tested on: C4-2 prostate cancer cells; test: Cellular viability of C4-2 cells (CellTiter-Glo); format: cell-based, human; settings: 6 days, 1% FBS + DHEA, read-out: GI50 (μM), growth inhibition
Procedure: C4-2 cells were routinely maintained in RPMI+2 mM L-Glutamine+1× Anti-Anti+10% FBS. C4-2 cells were harvested by trypsinization for 90 seconds in 0.25% Trypsin-EDTA, counted with a Vi-Cell Blu cell counter (Beckman Coulter), and diluted into Complete Viability Media (RPMI+2 mM L-Glutamine+1× Anti-Anti+1% FBS+[…]) at a density of 10,000 cells/mL. 12-point, two-fold dilution series of test compounds (starting at 10 mM) were prepared in 100% DMSO, and then 450 nL of the dilution series were stamped in triplicate into 384-well, white, opaque bottom, TC-treated CulturPlate™ (Perkin Elmer 6007680) using acoustic dispensing (Labcyte Echo 550). 50 μL/well of the diluted C4-2 cells (500 cells/well) were added directly to the plates containing dispensed compounds, yielding a final [DMSO] of 0.9% and a final top [compound] of 90 μM. The plates were centrifuged for 1 min at 500×g and then incubated for 6 days at 37° C., 5% CO2. Cell density at the end of the assay was measured using 35 μL/well CellTiter-Glo® (Promega) per the manufacturer's recommendations, and total luminescence was measured on a Cytation 5 plate reader. Raw luminescence values were normalized from 0 (empty Viability Media+0.9% DMSO, no cells) to 100 (Cells+0.9% DMSO, maximum proliferation), triplicate values were averaged, and dose-response curves were fit and G150 values extracted using variable slope nonlinear regression in GraphPad Prism.

[2] = tested on: Androstenedione synthesis in C4-2 prostate cancer cells; test: Cell line steroid metabolism: androstenedione synthesis inhibition (HPLC, [3H]-labeled androgens); format: cell-based; settings: Homo sapiens, serum-free RPMI-1640, [3H]-labeled androgens 25 nM
Procedure: Cells were seeded and incubated in 12-well plates with 0.15 million cells/well in RPMI-1640 medium with 10% FBS for ˜24 h at 37° C. Culture medium was then replaced with serum-free RPMI-1640 and a mixture of radioactive ([3H]-labeled) and non-radioactive androgens (final concentration, 25 nM; ˜600,000 cpm/well; PerkinElmer, Waltham, MA) plus inhibitor compounds at specified concentrations was added. […]
High-performance liquid chromatography (HPLC) analysis was performed on a Waters 1525 HPLC system (Waters Corp., Milford, MA). Dried samples were reconstituted in 50% methanol and injected into the HPLC. Steroids were separated on a Luna 150×4.6 mm, 3.0 μm particle size C18 reverse-phase column (Phenomenex, Torrance, CA) with a methanol/water gradient at 50° C. Column effluent was mixed with Liquiscint scintillation cocktail (National Diagnostics, Atlanta, GA) and analyzed using a β-RAM model 4 in-line radioactivity detector (LabLogic, Brandon, FL).

CCC1CCc2nc(-c3cc(F)c(O)c(F)c3)ccc2C1=O (centres unmarked) [Compound 8, 2-(3,5-difluoro-4-hydroxyphenyl)-6-ethyl-7,8-dihydroquinolin-5(6H)-one]
IC50 (human 3β-HSD1): 105 nM
GI50 ([1]; Homo sapiens, 144 h): 16 µM

O=C1c2ccc(-c3cc(F)c(O)c(F)c3)nc2CCC1c1ccccc1 (centres unmarked) [Compound 10, 2-(3,5-difluoro-4-hydroxyphenyl)-6-phenyl-7,8-dihydroquinolin-5(6H)-one]
IC50 (human 3β-HSD1): 79 nM
GI50 ([1]; Homo sapiens, 144 h): 10 µM

CC1(C)CCc2nc(-c3cc(F)c(O)c(F)c3)ccc2C1O (centres unmarked) [Compound 12]
IC50 (human 3β-HSD1): 2560 nM
GI50 ([1]; Homo sapiens, 144 h): 61 µM

CC1(C)CCc2nc(-c3cc(F)c(O)c(F)c3)ccc2C1(C)O (centres unmarked) [Compound 16]
IC50 (human 3β-HSD1): 376 nM
GI50 ([1]; Homo sapiens, 144 h): 20 µM

CC1(C)CCc2nc(-c3cc(F)c(O)c(F)c3)ccc2C1(O)C1CC1 (centres unmarked) [Compound 20]
IC50 (human 3β-HSD1): 331 nM
GI50 ([1]; Homo sapiens, 144 h): 30 µM

CC1(C)CCc2nc(-c3cc(F)c(O)cc3F)ccc2C1=O [Compound 25]
IC50 (human 3β-HSD1): 84 nM
IC50 [2]: 1 nM

O=C1c2ccc(-c3cc(F)c(O)c(F)c3)nc2CCC1(F)F [Compound 41]
IC50 (human 3β-HSD1): 79 nM
IC50 [2]: 68 nM

CC1(C)CCc2nc(-c3ccc(O)c(Cl)c3)ccc2C1=O [Compound 49]
IC50 (human 3β-HSD1): 26 nM

CC1(C)CCc2nc(-c3ccc(O)c(C(F)(F)F)c3)ccc2C1=O [Compound 50]
IC50 (human 3β-HSD1): 1500 nM

O=C1c2ccc(-c3cc(F)c(O)c(F)c3)nc2CCC1F (centres unmarked) [Compound 51]
IC50 (human 3β-HSD1): 149 nM

CC1(CO)CCc2nc(-c3cc(F)c(O)c(F)c3)ccc2C1=O (centres unmarked) [Compound 52]
IC50 (human 3β-HSD1): 222 nM

COC1CCCc2nc(-c3cc(F)c(O)c(F)c3)ccc21 (centres unmarked) [Compound 53]
IC50 (human 3β-HSD1): 204 nM

CC1(C)CCc2nc(-c3cc(F)c(O)c(Cl)c3)ccc2C1=O [Compound 54]
IC50 (human 3β-HSD1): 107 nM

CC[C@@]1(C)CCc2nc(-c3cc(F)c(O)c(F)c3)ccc2C1=O [Compound 55]
IC50 (human 3β-HSD1): 89 nM
IC50 [2]: 0.7 nM

CC[C@]1(C)CCc2nc(-c3cc(F)c(O)c(F)c3)ccc2C1=O [Compound 56]
IC50 (human 3β-HSD1): 110 nM

C[C@]1(Cc2ccccc2)CCc2nc(-c3cc(F)c(O)c(F)c3)ccc2C1=O [Compound 57]
IC50 (human 3β-HSD1): 78 nM

C[C@@]1(Cc2ccccc2)CCc2nc(-c3cc(F)c(O)c(F)c3)ccc2C1=O [Compound 58]
IC50 (human 3β-HSD1): 55 nM

CN(C)CC1(C)CCc2nc(-c3cc(F)c(O)c(F)c3)ccc2C1=O (centres unmarked) [Compound 60]
IC50 (human 3β-HSD1): 1170 nM

O=C1c2ccc(-c3cc(F)c(O)cc3F)nc2CCC12CC2 [Compound 61]
IC50 (human 3β-HSD1): 127 nM

O=C1c2ccc(-c3cc(F)c(O)c(F)c3)nc2CCC12COCOC2 [Compound 62]
IC50 (human 3β-HSD1): 541 nM

O=C1c2ccc(-c3cc(F)c(O)c(F)c3)nc2CCC12COC2 [Compound 63]
IC50 (human 3β-HSD1): 370 nM

O=C1CCOc2nc(-c3cc(F)c(O)c(F)c3)ccc21 [Compound 64]
IC50 (human 3β-HSD1): 433 nM

CC1(C)CCc2nc(-c3cnc(O)c(F)c3)ccc2C1=O [Compound 65]
IC50 (human 3β-HSD1): > 20000 nM

CC1(C)CCc2nc(-c3cc(F)c(O)c(F)c3)ncc2C1=O [Compound 66]
IC50 (human 3β-HSD1): 414 nM

CC1(C)CCc2nc(-c3cc(F)c(O)c(C#N)c3)ccc2C1=O [Compound 67]
IC50 (human 3β-HSD1): 1880 nM

CN1CC(C)(C)C(=O)c2ccc(-c3cc(F)c(O)c(F)c3)nc21 [Compound 68]
IC50 (human 3β-HSD1): 308 nM

CC1(C)CNc2nc(-c3cc(F)c(O)c(F)c3)ccc2C1=O [Compound 69]
IC50 (human 3β-HSD1): 470 nM

O=C1CCCc2nc(-c3cc(F)c(O)c(F)c3)cnc21 [Compound 70]
IC50 (human 3β-HSD1): 7640 nM

Cc1cc(-c2ccc3c(n2)CCC(C)(C)C3=O)cc(F)c1O [Compound 71]
IC50 (human 3β-HSD1): 67 nM

CC1(C)Cc2nc(-c3cc(F)c(O)c(F)c3)ccc2C1=O [Compound 72]
IC50 (human 3β-HSD1): 221 nM

CC1(C)CCc2nc(-c3ccc(O)c(F)c3F)ccc2C1=O [Compound 73]
IC50 (human 3β-HSD1): 122 nM

Oc1c(F)cc(-c2ccc3c(n2)CCCC3OCC2COC2)cc1F (centres unmarked) [Compound 74]
IC50 (human 3β-HSD1): 441 nM

COCC1(C)CCc2nc(-c3cc(F)c(O)c(F)c3)ccc2C1=O (centres unmarked) [Compound 75]
IC50 (human 3β-HSD1): 338 nM

CCOC1CCCc2nc(-c3cc(F)c(O)c(F)c3)ccc21 (centres unmarked) [Compound 76]
IC50 (human 3β-HSD1): 389 nM

Oc1c(F)cc(-c2ccc3c(n2)CCCC3OC2COC2)cc1F (centres unmarked) [Compound 77]
IC50 (human 3β-HSD1): 1070 nM

Cc1cc(-c2ccc3c(n2)CCC(C)(C)C3=O)cc(Cl)c1O [Compound 78]
IC50 (human 3β-HSD1): 2170 nM

COC1(C)CCCc2nc(-c3cc(F)c(O)c(F)c3)ccc21 (centres unmarked) [Compound 79]
IC50 (human 3β-HSD1): 38 nM

CC1(C)CCc2nc(-c3cc(F)c(O)c(F)c3F)ccc2C1=O [Compound 80]
IC50 (human 3β-HSD1): 152 nM

Cc1cc(-c2ccc3c(n2)CCC(C)(C)C3=O)c(F)c(F)c1O [Compound 81]
IC50 (human 3β-HSD1): 326 nM

CCN1CC(C)(C)C(=O)c2ccc(-c3cc(F)c(O)c(F)c3)nc21 [Compound 82]
IC50 (human 3β-HSD1): 326 nM

COCCN1CC(C)(C)C(=O)c2ccc(-c3cc(F)c(O)c(F)c3)nc21 [Compound 83]
IC50 (human 3β-HSD1): 556 nM

CC1(C)CCc2nc(-c3ccc(O)c(F)c3)ncc2C1=O [Compound 84]
IC50 (human 3β-HSD1): 288 nM

CC1(C)CCc2nc(-c3cc(F)c(O)cc3F)ncc2C1=O [Compound 85]
IC50 (human 3β-HSD1): 1540 nM

CC1(C2(O)COC2)CCc2nc(-c3cc(F)c(O)c(F)c3)ccc2C1=O (centres unmarked) [Compound 86]
IC50 (human 3β-HSD1): 1420 nM

COC1(C(C)C)CCCc2nc(-c3cc(F)c(O)c(F)c3)ccc21 (centres unmarked) [Compound 87]
IC50 (human 3β-HSD1): 45 nM

CC1(C(F)(F)C(F)(F)F)CCc2nc(-c3cc(F)c(O)c(F)c3)ccc2C1=O (centres unmarked) [Compound 88]
IC50 (human 3β-HSD1): 78 nM

CC1(CC(F)(F)F)CCc2nc(-c3cc(F)c(O)c(F)c3)ccc2C1=O (centres unmarked) [Compound 89]
IC50 (human 3β-HSD1): 188 nM

CCOC1(c2ccccc2)CCCc2nc(-c3cc(F)c(O)c(F)c3)ccc21 (centres unmarked) [Compound 90]
IC50 (human 3β-HSD1): 52 nM

COC1(c2cccnc2)CCCc2nc(-c3cc(F)c(O)c(F)c3)ccc21 (centres unmarked) [Compound 91]
IC50 (human 3β-HSD1): 25 nM

Oc1c(F)cc(-c2ccc3c(n2)CCCC3(O)c2cccnc2)cc1F (centres unmarked) [Compound 92]
IC50 (human 3β-HSD1): 68 nM

COC1(c2ccccn2)CCCc2nc(-c3cc(F)c(O)c(F)c3)ccc21 (centres unmarked) [Compound 93]
IC50 (human 3β-HSD1): 131 nM

Oc1c(F)cc(-c2ccc3c(n2)CCCC3(O)c2ccccn2)cc1F (centres unmarked) [Compound 94]
IC50 (human 3β-HSD1): 238 nM

COC1(c2ncco2)CCCc2nc(-c3cc(F)c(O)c(F)c3)ccc21 (centres unmarked) [Compound 95]
IC50 (human 3β-HSD1): 100 nM

C[C@]12CCC(=O)C=C1CC[C@@H]1[C@@H]2CC[C@]2(C)C(c3cccnc3)=CC[C@@H]12 [D4-Abiraterone, reference compound]
GI50 [1]: 2.4 ± 0.4 µM
